Data reported in patent publication US20230310455A1, “COMBINATION THERAPIES FOR TREATMENT OF HER2 CANCER” (Genentech, Inc., priority 2020, published 2023).

Experiments:
[1] = test system: HER2 amplified (HER2-positive PIK3CA-mutant) breast cancer cell lines; experiment: Viability assay (CellTiter-Glo), HER2 amplified breast cancer cell lines; format: cell-based; settings: viability by ATP quantification
From the text: (§1) In a cell proliferation assay, we investigated the effect of inavolisib and alpelisib (both PI3Kα specific inhibitors) on vialibility of breast cancer cell lines having different HER2 expression and PIK3CA mutant status. Unexpectedly, we observed a significant difference between the sensitivity of inavolisib and alpelisib in HER2 amplified (˜20 fold difference between the mean IC50 values) versus HER2 negative cell lines (˜6-fold difference between two inhibitors). Both inhibitors were not differentiated in wild-type (WT) cell lines regardless of HER2 status (FIG. 1).
(§2) Cell lines were obtained from the ATCC. All cell lines underwent authentication by Short Tandem Repeat profiling, SNP fingerprinting, and mycoplasma testing (Yu M. et al. “A resource for cell line authentication, annotation and quality control” Nature 520, 307-311 (2015)). Cell lines were grown under standard tissue-culture conditions in RPMI media with 10% fetal bovine serum (Gibco, 10082-147), 100 U/mL penicillin-streptomycin (Gibco, 15140-122), 2 mmol/L L-glutamine (Gibco, 15030-081). […]
(§3) Viability assay: Cells were seeded (1000-2000 cells/well) in 384-well plates for 16 hours. […] After 4 days, relative numbers of viable cells were measured by luminescence using CellTiter-Glo® (Promega) according to the manufacturer's instructions and read on a Wallac Multilabel Reader (PerkinElmer, Foster City). […]

[2] = test system: HER2 negative (PIK3CA-mutant) breast cancer cell lines; experiment: Viability assay (CellTiter-Glo), HER2 negative breast cancer cell lines; format: cell-based; settings: viability by ATP quantification
From the text: as §1, §2, §3

[3] = target: Class I PI3K alpha isoform (PI3Kα) versus Class I PI3K beta, delta, and gamma isoforms (Homo sapiens, UniProt P42336); settings: cited from earlier work
Sequence of Class I PI3K alpha isoform (PI3Kα) versus Class I PI3K beta, delta, and gamma isoforms (P42336 whole entry, canonical isoform): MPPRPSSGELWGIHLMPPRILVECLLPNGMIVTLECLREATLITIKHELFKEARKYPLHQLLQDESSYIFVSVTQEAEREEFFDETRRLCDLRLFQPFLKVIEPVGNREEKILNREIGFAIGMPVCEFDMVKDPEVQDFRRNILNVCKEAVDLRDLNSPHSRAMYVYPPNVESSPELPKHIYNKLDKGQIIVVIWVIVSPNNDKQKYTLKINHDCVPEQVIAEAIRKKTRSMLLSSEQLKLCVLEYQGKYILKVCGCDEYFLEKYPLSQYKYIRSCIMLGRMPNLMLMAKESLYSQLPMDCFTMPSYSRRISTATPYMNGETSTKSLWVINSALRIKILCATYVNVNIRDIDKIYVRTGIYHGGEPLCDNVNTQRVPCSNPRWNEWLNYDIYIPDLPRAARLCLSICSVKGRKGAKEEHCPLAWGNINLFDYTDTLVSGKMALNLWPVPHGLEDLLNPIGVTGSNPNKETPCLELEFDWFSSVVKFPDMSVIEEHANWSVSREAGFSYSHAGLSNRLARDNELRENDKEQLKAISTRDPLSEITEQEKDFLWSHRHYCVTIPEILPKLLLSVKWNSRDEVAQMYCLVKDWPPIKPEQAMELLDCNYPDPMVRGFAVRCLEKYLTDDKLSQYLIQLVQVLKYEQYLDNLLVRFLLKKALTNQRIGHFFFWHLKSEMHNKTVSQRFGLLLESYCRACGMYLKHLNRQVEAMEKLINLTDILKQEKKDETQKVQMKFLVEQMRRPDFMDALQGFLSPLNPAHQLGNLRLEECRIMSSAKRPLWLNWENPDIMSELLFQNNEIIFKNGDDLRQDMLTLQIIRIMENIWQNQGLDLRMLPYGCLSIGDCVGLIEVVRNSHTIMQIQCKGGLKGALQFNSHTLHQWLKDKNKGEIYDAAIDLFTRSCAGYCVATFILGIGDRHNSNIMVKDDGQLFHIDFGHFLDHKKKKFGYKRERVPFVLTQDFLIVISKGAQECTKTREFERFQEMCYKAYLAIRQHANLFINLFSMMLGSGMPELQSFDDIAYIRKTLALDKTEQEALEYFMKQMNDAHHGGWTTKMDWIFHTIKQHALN
Sequence of Class I PI3K alpha isoform (PI3Kα) versus Class I PI3K beta, delta, and gamma isoforms (P27986 whole entry partner, canonical isoform): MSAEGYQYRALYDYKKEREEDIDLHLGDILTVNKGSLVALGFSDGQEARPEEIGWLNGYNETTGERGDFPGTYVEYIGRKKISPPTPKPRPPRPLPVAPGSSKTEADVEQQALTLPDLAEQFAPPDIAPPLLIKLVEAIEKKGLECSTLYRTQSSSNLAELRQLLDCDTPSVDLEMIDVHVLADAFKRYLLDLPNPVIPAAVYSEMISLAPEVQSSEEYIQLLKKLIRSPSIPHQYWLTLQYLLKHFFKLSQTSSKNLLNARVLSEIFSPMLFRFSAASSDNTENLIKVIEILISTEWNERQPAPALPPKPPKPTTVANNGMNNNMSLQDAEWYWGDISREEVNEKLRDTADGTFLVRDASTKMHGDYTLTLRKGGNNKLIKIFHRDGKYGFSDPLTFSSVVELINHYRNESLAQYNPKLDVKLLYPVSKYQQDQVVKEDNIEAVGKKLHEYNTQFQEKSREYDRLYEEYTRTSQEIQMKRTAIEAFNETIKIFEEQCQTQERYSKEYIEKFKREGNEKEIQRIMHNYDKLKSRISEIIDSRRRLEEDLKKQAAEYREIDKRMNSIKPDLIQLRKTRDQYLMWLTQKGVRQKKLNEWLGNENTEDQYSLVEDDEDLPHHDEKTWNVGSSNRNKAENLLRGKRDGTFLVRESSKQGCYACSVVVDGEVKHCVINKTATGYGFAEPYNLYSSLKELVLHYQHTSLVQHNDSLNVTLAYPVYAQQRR

[4] = test system: KPL-4 (HER2-positive, PIK3CA H1047R) breast cancer xenograft; experiment: In vivo tumor growth inhibition, KPL-4 breast cancer xenograft model; settings: inavolisib 25 mg/kg orally daily 28 days, trastuzumab 3 mg/kg and pertuzumab 2.5 mg/kg i.p. weekly 4 weeks
Procedure: The in vivo efficacy of the test compounds and combinations was tested in a KPL-4 (HER2-positive, PIK3CA H1047R) breast cancer xenograft model. […] Tumor volumes were measured using Ultra Cal-IV calipers (Model 54-10-111; Fred V. Fowler Co.; Newton, MA). The following formula was used in Excel, version 11.2 to calculate tumor volume: Tumor Volume (mm^3)=(Length×Width^2)×0.5. Mice for efficacy studies were distributed into 8-10 mice/group with a mean tumor volume of 200 to 250 mm^3 at the initiation of dosing. A linear mixed effect (LME) modeling approach was used to analyze the repeated measurement of tumor volumes from the same animals over time (Pinheiro et al., “Linear and Nonlinear Mixed Effects Models” R package version 3; 1-131 (2017)). Cubic regression splines were used to fit a non-linear profile to the time courses of log^2 tumor volume at each dose level. These non-linear profiles were then related to dose within the mixed model. Tumor growth inhibition as a percentage of vehicle control (%TGI) was calculated as the percentage of the area under the fitted curve (AUC) for the respective dose group per day in relation to the vehicle, using the following formula: %TGI=100×(1−AUCdose/AUCvehicle).
Tumor sizes and mouse body weights were recorded twice weekly, and mice with tumor volume exceeding 2000 mm^3 or body weight loss of 20% of starting weight were promptly euthanized.

difference between the mean IC50 values of inavolisib and alpelisib [1]: ~20 fold
difference between two inhibitors (mean IC50 values of inavolisib and alpelisib) [2]: 6 fold
SMILES: C[C@H](Nc1ccc2c(c1)OCCn1cc(N3C(=O)OC[C@H]3C(F)F)nc1-2)C(N)=O [inavolisib, (S)-2-((2-((S)-4-(difluoromethyl)-2-oxooxazolidin-3-yl)-5,6-dihydrobenzo[f]imidazo[1,2-d][1,4]oxazepin-9-yl)amino)propanamide]
less potent biochemical inhibition for other Class I PI3K beta, delta, and gamma isoforms (selectivity for PI3Kα) [3]: > 300 fold
Growth Effect Duration [4]: >31.0
Growth Rate Contrast [4]: −0.069
Growth Contrast ([4]; 9 mice per group): −0.086
